Results on three compounds are retold here after paper PMC7994819, “Pharmacokinetics and metabolomics investigation of an orally modified formula of standardized Centella asiatica extract in healthy volunteers” (Scientific Reports, 2021).

Read-outs that look alike come from different tables or passages of the source.

The nature of data set [1]: Clinical pharmacokinetics in plasma (LC–MS/MS, non-compartmental analysis) after oral modified formula ECa 233 capsules. The format is in vivo, human (healthy Thai volunteers). On the procedure: This was a single-center, with an open-label, two-sequence of dosages (250 and 500 mg), two-periods of study (single and multiple dose) conducted in fasting condition (Fig. 1). […] All blood samples were centrifuged at 4 °C, 3200 × g for 10 min. […] Feces were also collected from one of the volunteers for detecting the possible presence of any eliminated compounds. Feces samples were collected each time that a volunteer defecated on day 1-3, 4-6 and 7-9 during the study period. These samples were immediately fixed with methanol and prepared by our previously described method of protein precipitation. […] Plasma, urine and fecal samples were then stored at - 80 °C until analysis. […] Then they had another set of blood and urine samples collected similar to the single dose study. […] Sample preparation was performed by protein precipitation with two internal standards (glycerrhizin and […]) to correct the quantitative analysis of parent compounds and of their metabolites. Briefly, 200 μL of methanol was added followed by vortex mixing with 50 μL of each sample for 10 min and then centrifuged at 12,000 × g, 4 °C, 10 min. Quantitative determination of the parent compounds and their active metabolites in plasma and urine were carried out by using liquid chromatography tandem mass spectrometry (LC-MS/MS): LCMS-8060 (Shimadzu Corp. Japan) according to a previously validated and published bioanalytical method. […] The MS/MS system was operated using an ESI source in negative mode with MRM. For m/z transition; […] Non-compartmental analysis was applied to determine pharmacokinetic parameters and performed by PK solutions software (version 2.0). […] The apparent clearance (Cl/F) after oral administration was calculated as Cl/F = Dose/AUC, where F is the absolute oral bioavailability. The apparent volume of distribution (Vd/F) was estimated using Vd/F = Dose/(AUC × kel). The Cmax and Tmax were determined directly from the observed concentration-time curve.

Data set [2] is described as follows: Urine and feces excretion after oral modified formula ECa 233 capsules (LC–MS/MS). Type of data set: in vivo, human (healthy Thai volunteers). On the procedure: This was a single-center, with an open-label, two-sequence of dosages (250 and 500 mg), two-periods of study (single and multiple dose) conducted in fasting condition (Fig. 1). […] All blood samples were centrifuged at 4 °C, 3200 × g for 10 min. […] Feces were also collected from one of the volunteers for detecting the possible presence of any eliminated compounds. Feces samples were collected each time that a volunteer defecated on day 1-3, 4-6 and 7-9 during the study period. These samples were immediately fixed with methanol and prepared by our previously described method of protein precipitation. […] Plasma, urine and fecal samples were then stored at - 80 °C until analysis. Sample preparation was performed by protein precipitation with two internal standards (glycerrhizin and […]) to correct the quantitative analysis of parent compounds and of their metabolites. Briefly, 200 μL of methanol was added followed by vortex mixing with 50 μL of each sample for 10 min and then centrifuged at 12,000 × g, 4 °C, 10 min. […] The MS/MS system was operated using an ESI source in negative mode with MRM.

For data set [3] the following is noted: in vivo; cited from earlier work.
Setting [4] is: human, plasma, po, 250 mg, plasma, multiple dose oral, Day 7 (T0-72 h), ECa 233 250 mg daily, mean ± SD, n=12, read-out: AUC.
The mark [5] stands for this setting: human, plasma, po, 250 mg, plasma, multiple dose oral, Day 7 (T0-72 h), ECa 233 250 mg daily, mean ± SD, n=12, read-out: Cmax.
Where [6] appears, read: human, plasma, po, 250 mg, plasma, multiple dose oral, Day 7 (T0-72 h), ECa 233 250 mg daily, median [IQR], n=12, read-out: Tmax.
The mark [7] stands for this setting: human, plasma, po, 250 mg, plasma, single dose oral, Day 1 (T0-24 h), ECa 233 250 mg, mean ± SD, n=12, read-out: AUC.
Where [8] appears, read: human, plasma, po, 250 mg, plasma, single dose oral, Day 1 (T0-24 h), ECa 233 250 mg, mean ± SD, n=12, read-out: Cmax.
[9] abbreviates: human, plasma, po, 250 mg, plasma, single dose oral, Day 1 (T0-24 h), ECa 233 250 mg, median [IQR], n=12, read-out: Tmax.
The mark [10] stands for this setting: human, plasma, po, 500 mg, plasma, multiple dose oral, Day 7 (T0-72 h), ECa 233 500 mg daily, mean ± SD, n=11, read-out: AUC.
Setting [11] is: human, plasma, po, 500 mg, plasma, multiple dose oral, Day 7 (T0-72 h), ECa 233 500 mg daily, mean ± SD, n=11, read-out: Cmax.
Setting [12] is: human, plasma, po, 500 mg, plasma, multiple dose oral, Day 7 (T0-72 h), ECa 233 500 mg daily, median [IQR], n=11, read-out: Tmax.
[13] abbreviates: human, plasma, po, 500 mg, plasma, single dose oral, Day 1 (T0-24 h), ECa 233 500 mg, mean ± SD, n=11, read-out: AUC.
Setting [14] is: human, plasma, po, 500 mg, plasma, single dose oral, Day 1 (T0-24 h), ECa 233 500 mg, mean ± SD, n=11, read-out: Cmax.
The mark [15] stands for this setting: human, plasma, po, 500 mg, plasma, single dose oral, Day 1 (T0-24 h), ECa 233 500 mg, median [IQR], n=11, read-out: Tmax.
Setting [16] is: plasma, oral modified formula ECa 233 capsules.

Consider `C[C@H]1[C@H](C)CC[C@]2(C(=O)O)CC[C@]3(C)C(=CC[C@@H]4[C@@]5(C)C[C@@H](O)[C@H](O)[C@@](C)(CO)[C@@H]5CC[C@]43C)[C@H]12` [ASA, Asiatic acid], for which the AUC in data set [1] (setting [4]) is 1010 ± 221 ng·h/mL; in data set [1] (setting [7]), 648 ± 117 ng·h/mL; in data set [1] (setting [10]), 1390 ± 333 ng·h/mL; in data set [1] (setting [13]), 733 ± 150 ng·h/mL. Moreover, the Cmax is 78.2 ± 26.4 ng/mL in data set [1] (setting [5]), 79.8 ± 19.3 ng/mL in data set [1] (setting [8]), 170 ± 53.8 ng/mL in data set [1] (setting [11]) and 102 ± 20.8 ng/mL in data set [1] (setting [14]). For the same compound, the Tmax in data set [1] (setting [6]), in data set [1] (setting [9]), in data set [1] (setting [12]) and in data set [1] (setting [15]) was 1.5 h throughout. Besides, the “time after dosing at which Cmax was observed” value (“time after dosing” below) in data set [1] (setting [16]) lay in the range of 1 to 2 h. The presence in feces result in data set [2] (fecal samples from one volunteer) is reported as “found in the feces”. In data set [2] (urine 0–24 h after oral dosing of 250 or 500 mg ECa 233), the elimination into urine result is “absence of the metabolites in the urine”.

Regarding `C[C@H]1[C@H](C)CC[C@]2(C(=O)O)CC[C@]3(C)C(=CC[C@@H]4[C@@]5(C)C[C@@H](O)[C@H](O)[C@@](C)(CO)[C@@H]5[C@H](O)C[C@]43C)[C@H]12` [MDA, Madecassic acid], the AUC in data set [1] (setting [4]) was determined as 437 ± 175 ng·h/mL; in data set [1] (setting [7]), 410 ± 100 ng·h/mL; in data set [1] (setting [10]), 516 ± 157 ng·h/mL; in data set [1] (setting [13]), 476 ± 117 ng·h/mL. Besides, the Cmax in data set [1] (setting [5]) worked out at 61.4 ± 20.5 ng/mL; in data set [1] (setting [8]), 66.1 ± 17.1 ng/mL; in data set [1] (setting [11]), 99.8 ± 27.6 ng/mL; in data set [1] (setting [14]) it was 72.3 ± 16.3 ng/mL. The Tmax in data set [1] (setting [6]) turned out to be 2 h; in data set [1] (setting [9]), 1.5 h; in data set [1] (setting [12]) it was 1.5 h; in data set [1] (setting [15]), 1.5 h. Besides, in data set [1] (setting [16]), the “time after dosing” value lay within 1 to 2 h.

Take Madecassoside [MDS]: the “time after dosing” value in data set [1] (human, in vivo, po) is on record as at most 1 h. For the same compound, in data set [1] (human, in vivo, po, 250 mg), the AUC is 75.38 ± 26.60 ng·h/mL, the Cmax was 9.57 ± 3.34 ng/mL and the Tmax was 1 [0.5] h. In data set [1] (human, in vivo, po, 500 mg), the AUC stood at 141.16 ± 41.15 ng·h/mL, the Cmax turned out to be 12.73 ± 2.73 ng/mL and the Tmax was 1 [0.5] h. Besides, in data set [3], the “excretion (0–72 h) in feces” value was 24.68% and the “excretion (0–72 h) in urine” value was 0.25%.

The term AUC denotes concentration integrated over time. As a reminder, the Cmax is the peak of the concentration-time curve.
